Source: patent US11028079B2 (ConverGene LLC, priority 2015, dated 2021)

Molecular target: T1, BRD4 bromodomains (Homo sapiens, UniProt O60885)
T1 construct: fused on or other part: T7 phage capsid protein (phage-display fusion; the phage DNA is read out by qPCR)
Experiment: BROMOscan bromodomain competition binding assay (DiscoveRx)
Details: Kd from 11 compound concentrations ranging from 0 to 10 μM, read-out: BROMOscan Relative Activity
Outline: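 Compounds in 0.1% DMSO/0.9% MEG competed with a solid-phase acetylated peptide for T7 phage-fused BRD4 bromodomains, with the retained bromodomain measured by qPCR.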

Row | SMILES | Kd
1 | Cc1noc(C)c1-c1ccc2nc(C(=O)NC3CCS(=O)(=O)CC3)nc(NCc3cccc(Cl)c3)c2c1 [Example 204, 4-((3-chlorobenzyl)amino)-6-(3,5-dimethylisoxazol-4-yl)-N-(1,1-dioxidotetrahydro-2H-thiopyran-4-yl)quinazoline-2-carboxamide] | < 500 nM
2 | Cc1nn(C)cc1CNC(=O)c1nc(NCc2cccc(Cl)c2)c2cc(-c3c(C)noc3C)ccc2n1 [Example 205, 4-((3-chlorobenzyl)amino)-N-((1,3-dimethyl-1H-pyrazol-4-yl)methyl)-6-(3,5-dimethylisoxazol-4-yl)quinazoline-2-carboxamide] | < 500 nM
3 | Cc1noc(C)c1-c1ccc2nc(C(=O)NCc3ccnc(Cl)c3)nc(NCc3cncc(Cl)c3)c2c1 [Example 206, 4-(((5-chloropyridin-3-yl)methyl)amino)-N-((2-chloropyridin-4-yl)methyl)-6-(3,5-dimethylisoxazol-4-yl)quinazoline-2-carboxamide] | < 500 nM
4 | Cc1noc(C)c1-c1ccc2nc(C(=O)NCc3ccncc3)nc(NCc3cncc(Cl)c3)c2c1 [Example 207, 4-(((5-chloropyridin-3-yl)methyl)amino)-6-(3,5-dimethylisoxazol-4-yl)-N-(pyridin-4-ylmethyl)quinazoline-2-carboxamide] | < 500 nM
5 | Cc1noc(C)c1-c1ccc2nc(C(=O)NCc3ccncc3Cl)nc(NCc3cccc(Cl)c3)c2c1 [Example 208, 4-((3-chlorobenzyl)amino)-N-((3-chloropyridin-4-yl)methyl)-6-(3,5-dimethylisoxazol-4-yl)quinazoline-2-carboxamide] | < 500 nM
6 | Cc1noc(C)c1-c1ccc2nc(C(=O)NC3CCN(C)CC3)nc(NCc3cncc(Cl)c3)c2c1 [Example 209, 4-(((5-chloropyridin-3-yl)methyl)amino)-6-(3,5-dimethylisoxazol-4-yl)-N-(1-methylpiperidin-4-yl)quinazoline-2-carboxamide] | < 500 nM
7 | Cc1noc(C)c1-c1ccc2nc(C3=CCN(S(C)(=O)=O)CC3)nc(NCc3cccc(Cl)c3)c2c1 [Example 210, N-(3-chlorobenzyl)-6-(3,5-dimethylisoxazol-4-yl)-2-(1-(methylsulfonyl)-1,2,3,6-tetrahydropyridin-4-yl)quinazolin-4-amine] | 500 to 5000 nM
8 | Cc1noc(C)c1-c1ccc2nc(C(=O)N(C)C3CCN(C)CC3)nc(NCc3cccc(Cl)c3)c2c1 [Example 211, 4-((3-chlorobenzyl)amino)-6-(3,5-dimethylisoxazol-4-yl)-N-methyl-N-(1-methylpiperidin-4-yl)quinazoline-2-carboxamide] | < 500 nM
9 | Cc1ncc(CNC(=O)c2nc(NCc3cccc(Cl)c3)c3cc(-c4c(C)noc4C)ccc3n2)s1 [Example 212, 4-((3-chlorobenzyl)amino)-6-(3,5-dimethylisoxazol-4-yl)-N-((2-methylthiazol-5-yl)methyl)quinazoline-2-carboxamide] | < 500 nM
10 | Cc1cnc(CNC(=O)c2nc(NCc3cccc(Cl)c3)c3cc(-c4c(C)noc4C)ccc3n2)s1 [Example 213, 4-((3-chlorobenzyl)amino)-6-(3,5-dimethylisoxazol-4-yl)-N-((5-methylthiazol-2-yl)methyl)quinazoline-2-carboxamide] | < 500 nM
11 | Cc1csc(CNC(=O)c2nc(NCc3cccc(Cl)c3)c3cc(-c4c(C)noc4C)ccc3n2)n1 [Example 214, 4-((3-chlorobenzyl)amino)-6-(3,5-dimethylisoxazol-4-yl)-N-((4-methylthiazol-2-yl)methyl)quinazoline-2-carboxamide] | < 500 nM
12 | Cc1noc(C)c1-c1ccc2nc(C(=O)NCc3ccncc3F)nc(NCc3cccc(Cl)c3)c2c1 [Example 215, 4-((3-chlorobenzyl)amino)-6-(3,5-dimethylisoxazol-4-yl)-N-((3-fluoropyridin-4-yl)methyl)quinazoline-2-carboxamide] | < 500 nM
13 | Cc1cnc(CNC(=O)c2nc(NCc3cccc(Cl)c3)c3cc(-c4c(C)noc4C)ccc3n2)o1 [Example 216, 4-((3-chlorobenzyl)amino)-6-(3,5-dimethylisoxazol-4-yl)-N-((5-methyloxazol-2-yl)methyl)quinazoline-2-carboxamide] | < 500 nM
14 | Cc1cnccc1CNC(=O)c1nc(NCc2cccc(Cl)c2)c2cc(-c3c(C)noc3C)ccc2n1 [Example 217, 4-((3-chlorobenzyl)amino)-6-(3,5-dimethylisoxazol-4-yl)-N-((3-methylpyridin-4-yl)methyl)quinazoline-2-carboxamide] | < 500 nM
15 | Cc1cc(NC(=O)c2nc(NCc3cccc(Cl)c3)c3cc(-c4c(C)noc4C)ccc3n2)ccn1 [Example 218, 4-((3-chlorobenzyl)amino)-6-(3,5-dimethylisoxazol-4-yl)-N-(2-methylpyridin-4-yl)quinazoline-2-carboxamide] | 500 to 5000 nM
16 | Cc1ccc(NC(=O)c2nc(NCc3cccc(Cl)c3)c3cc(-c4c(C)noc4C)ccc3n2)cn1 [Example 219, 4-((3-chlorobenzyl)amino)-6-(3,5-dimethylisoxazol-4-yl)-N-(6-methylpyridin-3-yl)quinazoline-2-carboxamide] | 500 to 5000 nM

Row | SMILES | Kd
17 | Cc1ccncc1NC(=O)c1nc(NCc2cccc(Cl)c2)c2cc(-c3c(C)noc3C)ccc2n1 [Example 220, 4-((3-chlorobenzyl)amino)-6-(3,5-dimethylisoxazol-4-yl)-N-(4-methylpyridin-3-yl)quinazoline-2-carboxamide] | < 500 nM
18 | Cc1noc(C)c1-c1ccc2nc(C(=O)Nc3cncc(F)c3)nc(NCc3cccc(Cl)c3)c2c1 [Example 221, 4-((3-chlorobenzyl)amino)-6-(3,5-dimethylisoxazol-4-yl)-N-(5-fluoropyridin-3-yl)quinazoline-2-carboxamide] | 500 to 5000 nM
19 | Cc1noc(C)c1-c1ccc2nc(C(=O)Nc3ccc(Cl)nc3)nc(NCc3cccc(Cl)c3)c2c1 [Example 222, 4-((3-chlorobenzyl)amino)-N-(6-chloropyridin-3-yl)-6-(3,5-dimethylisoxazol-4-yl)quinazoline-2-carboxamide] | > 5000 nM
20 | Cc1noc(C)c1-c1ccc2nc(C(=O)Nc3ccncc3F)nc(NCc3cccc(Cl)c3)c2c1 [Example 223, 4-((3-chlorobenzyl)amino)-6-(3,5-dimethylisoxazol-4-yl)-N-(3-fluoropyridin-4-yl)quinazoline-2-carboxamide] | > 5000 nM
21 | Cc1cc(NC(=O)c2nc(NCc3cccc(Cl)c3)c3cc(-c4c(C)noc4C)ccc3n2)cc(C)n1 [Example 224, 4-((3-chlorobenzyl)amino)-6-(3,5-dimethylisoxazol-4-yl)-N-(2,6-dimethylpyridin-4-yl)quinazoline-2-carboxamide] | 500 to 5000 nM
22 | Cc1noc(C)c1-c1ccc2nc(C(=O)Nc3cnn(C)c3)nc(NCc3cccc(Cl)c3)c2c1 [Example 225, 4-((3-chlorobenzyl)amino)-6-(3,5-dimethylisoxazol-4-yl)-N-(1-methyl-1H-pyrazol-4-yl)quinazoline-2-carboxamide] | < 500 nM
23 | Cc1noc(C)c1-c1ccc2nc(C(=O)NC3CCOCC3)nc(NCc3cccc(Cl)c3)c2c1 [Example 226, 4-((3-chlorobenzyl)amino)-6-(3,5-dimethylisoxazol-4-yl)-N-(tetrahydro-2H-pyran-4-yl)quinazoline-2-carboxamide] | < 500 nM
24 | CN1CCC(NC(=O)c2cc(NCc3cccc(Cl)c3)c3cc(-c4ccc(=O)n(C)c4)ccc3n2)CC1 [Example 227, 4-((3-chlorobenzyl)amino)-6-(1-methyl-6-oxo-1,6-dihydropyridin-3-yl)-N-(1-methylpiperidin-4-yl)quinoline-2-carboxamide] | < 500 nM
25 | Cc1noc(C)c1-c1ccc2nc(C(=O)NC3CCN(C)CC3)cc(NCc3cccc(Cl)c3)c2c1 [Example 228, 4-((3-chlorobenzyl)amino)-6-(3,5-dimethylisoxazol-4-yl)-N-(1-methylpiperidin-4-yl)quinoline-2-carboxamide] | < 500 nM
26 | Cc1noc(C)c1-c1ccc2nc(C(=O)NC3CCOCC3)nc(NCc3cncc(Cl)c3)c2c1 [Example 229, 4-(((5-chloropyridin-3-yl)methyl)amino)-6-(3,5-dimethylisoxazol-4-yl)-N-(tetrahydro-2H-pyran-4-yl)quinazoline-2-carboxamide] | < 500 nM
27 | Cc1nn(C)cc1CNC(=O)c1cc(NCc2cccc(Cl)c2)c2cc(-c3c(C)noc3C)ccc2n1 [Example 230, 4-((3-chlorobenzyl)amino)-N-((1,3-dimethyl-1H-pyrazol-4-yl)methyl)-6-(3,5-dimethylisoxazol-4-yl)quinoline-2-carboxamide] | < 500 nM
28 | Cc1noc(C)c1-c1ccc2nc(C(=O)NCC3CN(C)C3)cc(NCc3cccc(Cl)c3)c2c1 [Example 231, 4-((3-chlorobenzyl)amino)-6-(3,5-dimethylisoxazol-4-yl)-N-((1-methylazetidin-3-yl)methyl)quinoline-2-carboxamide] | < 500 nM
29 | Cc1noc(C)c1-c1ccc2nc(C(=O)NCc3cncn3C)nc(NCc3cncc(Cl)c3)c2c1 [Example 232, 4-(((5-chloropyridin-3-yl)methyl)amino)-6-(3,5-dimethylisoxazol-4-yl)-N-((1-methyl-1H-imidazol-5-yl)methyl)quinazoline-2-carboxamide] | < 500 nM
30 | Cc1noc(C)c1-c1ccc2nc(C(=O)NCC3CN(C)C3)nc(NCc3cncc(Cl)c3)c2c1 [Example 233, 4-(((5-chloropyridin-3-yl)methyl)amino)-6-(3,5-dimethylisoxazol-4-yl)-N-((1-methylazetidin-3-yl)methyl)quinazoline-2-carboxamide] | < 500 nM
31 | Cc1noc(C)c1-c1ccc2nc(C(=O)NC3CN(C)C3)cc(NCc3cccc(Cl)c3)c2c1 [Example 234, 4-((3-chlorobenzyl)amino)-6-(3,5-dimethylisoxazol-4-yl)-N-(1-methylazetidin-3-yl)quinoline-2-carboxamide] | < 500 nM
32 | Cc1noc(C)c1-c1ccc2nc(C(=O)NC3CCS(=O)(=O)CC3)cc(NCc3cccc(Cl)c3)c2c1 [Example 235, 4-((3-chlorobenzyl)amino)-6-(3,5-dimethylisoxazol-4-yl)-N-(1,1-dioxidotetrahydro-2H-thiopyran-4-yl)quinoline-2-carboxamide] | < 500 nM
